Entries after “also recorded” stand apart in the source; their conditions may differ.
Key:
[1] = tested on: gp120-induced calcium signaling in HT-29 cells; experiment: Inhibition of gp120-induced calcium signaling in HT-29 cells; type: cell-based, human; conditions: pretreatment
Protocol: (§1) Calcium studies were done on HT-29 cells and Ghost (3) cells loaded with Fluo 4. The cells were placed in Locke's buffer containing 5 μg/ml Fluo 4 AM ester (Molecular Probes) for 20 to 30 minutes, then in Locke's buffer for an additional 30 minutes before testing. Various concentrations of gp120IIIB (X4 trophic), gp120CM235 (R5 trophic), gp120mN (X4 trophic), gp12093TH975 (nonsyncytium-inducing primary isolate from an asymptomatic subject, trophism undetermined but likely R5), and gp120SF2 (X4R5 trophic), ranging from 10 nM to less than 1 pM, were added in Locke's buffer.^6 The gp120 proteins were obtained from the AIDS Research Reagent Referral Program. Some HT-29 cells were given one of the following pretreatments: 50 μg/ml anti-Bob37 overnight, 1 μg/ml pertussis toxin overnight, or 4.6 μg/ml U73122 for one hour. With the HT-29 cells only, similar tests were also performed with SDF-1, MIP-1α, MIP-1β, and RANTES rather than gp120. The cells were visualized every 4 seconds in a confocal microscope, using 488 nm argon laser excitation and detection filters appropriate for fluorescein-like dyes.
Blocking antibody experiments were done with HT-29 cells (monitoring calcium flux, microtubule loss, or transepithelial resistance), with Ghost (3) Bob cells (monitoring calcium flux) and peripheral blood mononuclear cells (monitoring calcium flux and HIV infection). Specifics of these protocols and the specific results are given herein. […] Antibody concentrations of 40 to 50 micrograms/ml overnight were needed for maximal effect.
(§2) For the first two or three days after plating, gp120 induces an immediate (within 4 seconds) calcium flux in undifferentiated HT-29 cells. The cells had previously been loaded with Fluo-4 AM ester (Molecular Probes, Eugene Oreg.) 5 micrograms/ml in the presence of Pleuronic F-127 0.02% in Locke's buffer for 30 minutes, then incubated at room temperature for an additional 30 minutes. Gp120IIIB was added while the cells were on an inverted confocal microscope using a 488 nm argon laser, with detection filters suitable for fluorescein-like dyes. […]

[2] = Interaction of synthetic Bob peptides with GalCer monolayer (surface pressure); type: binding, human; conditions: initial surface pressure 10 mN/m; at equilibrium; mean of three experiments ±SD
Protocol: Artificial membranes composed entirely of galactosyl ceramide with an alpha hydroxylated fatty acid were made. The surface pressure was measured with a microtensimeter (Kibron Inc., Finland) designed for the study of protein-lipid interactions. The peptides used for immunization were added to the subphase, and the surface pressure was continuously measured until equilibrium was reached. The increase in pressure was expressed in mN/m.
A monolayer of GalCer was prepared at the air-water interface at an initial surface pressure of 10 mN/m. The maximal surface surface pressure increase (Δπmax) reached at the equilibrium is indicated. The values are the mean of three separate experiments (±SD).
(§3) Galactosylceramide with an α-hydroxylated fatty acid (referred to as GalCer throughout this study) was either prepared from bovine brain (Sigma) or purified from HT-29-D4 membrane rafts (Fantini et al., 2000a). The surface pressure was measured with a microtensiometer (Kibron Inc., Finland) specially designed for studying protein-lipid interactions (Fantini et al., 2000a). The experiments were carried at 25° C. out in a laboratory equipped with a filtered air supply. A solution of GalCer was prepared extemporaneously in hexane:chloroform:methanol, 11:5:4 (v:v:v) at a concentration of 1 mg/ml. The lipid was carefully spread onto the meniscus of a pure water subphase (800 μl). The proteic ligand (GPR15/Bob peptides or HIV-1 gp120) was injected into the subphase with a 10 μl Hamilton syringe. The surface pressure was continuously measured as a function of time until reaching equilibrium corresponding to the maximal surface presure increase (Δπmax) expressed in mN/m.

[3] = tested on: HT-29 cells; experiment: Calcium signaling in HT-29 cells (Fluo 4, confocal microscope); type: cell-based, human
Protocol: HT-29 cells (from ATCC) were grown in DMEM-F12 with 10% bovine calf serum, and were used 24-48 hours after plating. The Ghost (3) cells were obtained from the AIDS Research and Reference Reagent Program, and were grown DMEM with 10% bovine calf serum supplemented with 500 μg/ml G418, 100 μg/ml hygromycin, and 1 μg/ml puromycin.^27 These cells were used 24 to 96 hours after plating.
as §1, §2

[4] = GalCer-gp120 interactions at the air-water interface (surface pressure); type: binding; conditions: gp120 5 nM in aqueous subphase
Protocol: A monomolecular film of GalCer was prepared at the air-water interface and gp120 purified from either IIIB (full squares), SEN (open circles) or 89.6 (full circles) isolates was added in the aqueous subphase at a concentration of 5 nM. The kinetics of the surface pressure increase induced by the viral glycoproteins are shown.
as §3
In a recent study, it was shown that the interaction between GalCer and gp120 purified from HIV-1(IIIB) was very efficient, whereas gp120s from 89.6 and SEN isolates interacted very weakly (Hammache et al., 1998). The kinetics of this interaction are an important physicochemical parameter allowing the direct comparison of GalCer recognition by various gp120s. In the experiment shown in FIG. 11, gp120 purified from IIIB, SEN, or 89.6 was injected underneath a monomolecular film of GalCer at the air-water interface. The GalCer film mimics the topology of a GalCer raft as it is organized in the external leaflet of the plasma membrane. For this reason, the Langmuir film balance technique is one of the most sensitive and reliable for studying protein-glycolipid interactions (Maggio et al., 1994). […] The surface increase indicates a condensing effect of the gp120 on the lipidic film due to its interaction with GalCer molecules (Hammache et al., 1998). […] At this time however, the level of interaction indicated by the absolute increase of the surface pressure was identical to the one of gp120(IIIB). […] The GalCer-binding capacity of gp120(SEN) was reevaluated and shown to occur much more slowly, but not less efficiently, than of gp120(IIIB).

[5] = tested on: HT-29-D4 cells; experiment: Transepithelial resistance (TEER) of differentiated HT-29-D4 cells; type: cell-based, human; conditions: electrophysiological medium
[6] = biological target: T1, Bob (Homo sapiens, UniProt P49685); experiment: gp120-induced calcium flux, Ghost (3) cells transfected with Bob (Fluo-4); type: cell-based; design: key to minimal concentration of gp120 resulting in a significant calcium flux: — = no calcium flux seen at any dilution tested
T1 construct: host or cells: Ghost (3) cells (human osteosarcoma, also transfected with CD4 and a GFP reporter)
T1 sequence (P49685 1-360): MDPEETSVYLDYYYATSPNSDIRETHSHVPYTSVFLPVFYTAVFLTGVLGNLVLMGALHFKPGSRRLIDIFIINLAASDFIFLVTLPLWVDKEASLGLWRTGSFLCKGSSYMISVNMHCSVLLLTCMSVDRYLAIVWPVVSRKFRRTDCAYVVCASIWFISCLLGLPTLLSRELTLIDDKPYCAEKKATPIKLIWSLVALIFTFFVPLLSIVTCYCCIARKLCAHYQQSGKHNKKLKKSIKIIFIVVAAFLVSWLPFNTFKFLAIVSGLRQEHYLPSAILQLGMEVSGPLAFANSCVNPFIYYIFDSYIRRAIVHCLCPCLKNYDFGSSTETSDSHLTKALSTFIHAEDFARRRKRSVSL
Protocol: as §1
(§4) Human osteosarcoma cell lines were transfected to express CD4, one or another of the HIV coreceptors, and a Green Fluorescent Protein reporter for active HIV infection, for the purpose of testing which of the known coreceptors was used to induce HIV infection by a given HIV strain (Morner A. J Virol 73:2343-9, 1999 and Deng K Nature 388:296-300, 1997). These cells were obtained from the AIDS Research and Reference Reagent Program, courtesy of Dr. Vineet KewalRamani and Dr. Dan Littman. These cells were grown in DMEM with 10% bovine calf serum supplemented with 0.5 mg/ml G418, 0.1 mg/ml hygromycin, and 1 microgram/ml puromycin, and were used at low passage number (less than 10). We have discovered that these cell lines are also activated by gp120 of certain viral strains, inducing a calcium flux in these cells.
Within 4 days of plating, coreceptor-transfected Ghost (3) cells (as well as the parent cell line not transfected to express any HIV coreceptors as a control) were put in Locke's medium, then treated with Fluo-4 (5 micrograms/ml for 30 minutes at 37° C.). After an additional 30 minute incubation in Locke's buffer at room temperature, the cells were examined in a confocal microscope while gp120 of various viral strains was added, and the cells were examined at 4 second intervals to look for a gp120-induced calcium flux. The results are given in the following table, expressed as the minimal concentration of gp120 resulting in a significant calcium flux. “−” means that no reproducible calcium flux was observed. “ND” means that the gp120 of that viral strain was not tested with the stated coreceptor.
These cells were treated with serial dilutions (100 or 250 nM to at least 1 pM, or even less if calcium fluxes were noted) of gp120. Gp120s from each of four HIV-1 strains: IIIB, CM235, SF2, and […] were used. Listed is the greatest dilution which induced a significant, reproducible calcium flux. The parental line is known to express CXCR4 at very low levels. Those results indicated by an asterisk are thought to represent this artifact.

[7] = tested on: Ghost (3) parental cell line; experiment: gp120-induced calcium flux, Ghost (3) parental cell line; type: cell-based, human; design: key: — = no calcium flux seen at any dilution tested; conditions: Ghost (3) parental line
Protocol: as §1, §4
(§5) Within 4 days of plating, coreceptor-transfected Ghost (3) cells (as well as the parent cell line not transfected to express any HIV coreceptors as a control) were put in Locke's medium, then treated with Fluo-4 (5 micrograms/ml for 30 minutes at 37° C.). After an additional 30 minute incubation in Locke's buffer at room temperature, the cells were examined in a confocal microscope while gp120 of various viral strains was added, and the cells were examined at 4 second intervals to look for a gp120-induced calcium flux. The results are given in the following table, expressed as the minimal concentration of gp120 resulting in a significant calcium flux. “−” means that no reproducible calcium flux was observed. “ND” means that the gp120 of that viral strain was not tested with the stated coreceptor. […]

[8] = biological target: T2, CXCR4 (Homo sapiens, UniProt P61073); experiment: gp120-induced calcium flux, Ghost (3) cells transfected with CXCR4; type: cell-based; design: key: — = no calcium flux seen at any dilution tested; conditions: Ghost (3) CXCR4 cells
T2 construct: host or cells: Ghost (3) cells (human osteosarcoma, CD4+)
T2 sequence (P61073 whole entry): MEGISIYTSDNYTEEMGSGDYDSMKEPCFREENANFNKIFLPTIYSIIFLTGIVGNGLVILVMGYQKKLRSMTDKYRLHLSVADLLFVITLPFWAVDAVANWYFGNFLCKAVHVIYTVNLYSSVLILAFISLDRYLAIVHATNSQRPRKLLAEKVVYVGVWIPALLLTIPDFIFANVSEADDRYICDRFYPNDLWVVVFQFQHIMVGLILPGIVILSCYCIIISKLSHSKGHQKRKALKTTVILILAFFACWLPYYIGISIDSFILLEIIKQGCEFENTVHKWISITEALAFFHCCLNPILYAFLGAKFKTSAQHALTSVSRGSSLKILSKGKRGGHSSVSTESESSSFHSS
Protocol: as §1, §4, §5

[9] = biological target: T3, CCR5 (Homo sapiens, UniProt P51681); experiment: gp120-induced calcium flux, Ghost (3) cells transfected with CCR5; type: cell-based; design: key: — = no calcium flux seen at any dilution tested; conditions: Ghost (3) CCR5 cells
T3 construct: host or cells: Ghost (3) cells (human osteosarcoma, CD4+)
T3 sequence (P51681 whole entry): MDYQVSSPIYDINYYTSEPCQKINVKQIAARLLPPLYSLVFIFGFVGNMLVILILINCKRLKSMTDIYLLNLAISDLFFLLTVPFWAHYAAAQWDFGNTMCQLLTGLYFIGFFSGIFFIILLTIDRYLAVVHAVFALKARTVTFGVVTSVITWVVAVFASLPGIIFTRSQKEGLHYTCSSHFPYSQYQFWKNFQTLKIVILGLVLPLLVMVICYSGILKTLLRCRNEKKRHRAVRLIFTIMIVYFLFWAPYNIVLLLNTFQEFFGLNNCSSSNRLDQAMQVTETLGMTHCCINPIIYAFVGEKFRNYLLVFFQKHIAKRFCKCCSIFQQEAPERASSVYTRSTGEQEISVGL
Protocol: as §1, §4, §5

[10] = tested on: peripheral blood mononuclear cells; experiment: gp120-induced calcium flux in peripheral blood mononuclear cells; type: cell-based, human; conditions: for inhibition of gp120IIIB-induced calcium flux, in words: pretreatment
Protocol: Normal human peripheral blood mononuclear cells were isolated by Ficoll gradient centrifugation, and loaded with the calcium sensitive dye Fluo-4. HIV gp120IIIB induced strong calcium fluxes in the range of 7 nM to 50 pM, and there was a weaker signal at 5 pM.
Experiments corresponding to those with HT-29 cells were done with peripheral blood mononuclear cells. These were isolated from the blood of a healthy, HIV-uninfected person by a Ficoll-Hypaque techique (Histopaque, Sigma), then loaded with Fluo-4 by a technique nearly identical to that used for HT-29 cells, except that Hank's buffer was used rather than Locke's, and the cells were centrifuged (2,000 g for 10 minutes) just before calcium flux measurements to improve adherence. Gp120-induced calcium fluxes were documented with as little as 5 pM gp120IIIB.

In the case of `COc1ccc2c(c1)CC[C@@H]1[C@@H]2CC[C@]2(C)[C@@H](NCCCCCCN3C(=O)CCC3=O)CC[C@@H]12` [U73343], the “inhibition of gp120-induced calcium signaling, in words” value [1] was “no inhibitory effect and not”.
With “DKEASLGLWRTGSFLCK [P2, Bob peptide, first extracellular loop]” the Δπ max [2] was 5.40 ± 1.52 mN/m.
“HAEDFARRRKRSVSL [P1, Bob peptide, internal C-ter domain]” gave a Δπ max [2] of 1.89 ± 0.85 mN/m.
With “KNYDFGSSTETSDSHLTK [P6, Bob peptide, internal C-ter domain]” the Δπ max [2] was 2.67 ± 0.40 mN/m.
“MDPEETSVYLDYYYATS [P3, Bob peptide, extracellular N-ter end]” gave a Δπ max [2] of 2.26 ± 0.12 mN/m.
In the case of “RELTLIDDKPYCAEKKAT [P5, Bob peptide, second extracellular loop]”, the Δπ max [2] was 6.86 ± 1.37 mN/m.
For “SDF-1: natural ligand of CXCR4 [reference compound]”, the “calcium signaling in HT-29 cells, in words” value [3] was “substantial calcium signal; also recorded: induced similar calcium signaling”.
With “SGLRQEHYLPSAILQ [P4, Bob peptide, third extracellular loop]” the Δπ max [2] was 5.21 ± 1.06 mN/m.
For “gp120(89.6): gp120 purified from primary isolate HIV-1(89.6)”, the “interaction with GalCer film, in words” value [4] was “very little association with GalCer”, the “maximal surface pressure increase relative to IIIB and SEN” value [4] was “less than 50%” and the “TEER response, in words” value [5] was “not observed”. For the same compound, the “TEER response, in words” value ([5]; listed as gp120 from 89.6) was “totally inactive”.
In the case of “gp120MN: gp120 of HIV strain MN (X4 trophic)”, the “minimal concentration of gp120 resulting in a significant calcium flux” value ([6]; Ghost (3) Bob cells, 100 or 250 nM to at least 1 pM) was “—”, the “Bob activation / calcium signals in Bob-transfected Ghost (3) cells, in words” value ([6]; listed as MN) was “do not activate Bob; also recorded: did not cause calcium signals” and the “minimal concentration of gp120 resulting in a significant calcium flux” value [7] was “—”. The “minimal concentration of gp120 resulting in a significant calcium flux” value [8] was “—” and the “minimal concentration of gp120 resulting in a significant calcium flux” value [9] was “—”.
With heparin the “inhibition of gp120IIIB-induced calcium flux” value ([10]; 15 minute preincubation of gp120IIIB with 40 micrograms/ml at 0-4° C., 200 nM gp120IIIB) was 40 fold, the “inhibition of gp120IIIB-induced calcium flux, in words” value [10] was “Inhibition” and the “inhibition of gp120IIIB-induced calcium flux, in words” value ([10]; listed as sodium heparin) was “inhibited the calcium flux”.

Source: patent publication US20050042747A1, “Hivgp120-induced bob/gpr15 activation” (priority 2001, published 2005)
